The structures appear in SMILES notation.

The source of these data is patent publication US20160102317A1, “PLANTS HAVING INCREASED TOLERANCE TO HERBICIDES” (BASF SE, priority 2013, published 2016).

Assay [1] concerns the target T1, Hordeum HPPD (SEQ ID NO:2), wild-type (Hordeum vulgare, UniProt O48604, A164G/R146V/R147D/R148G).
T1 construct: His (N); made in house; host or cells: E. coli BL21 (DE3)
Description: HPPD activity assay (HGA by HPLC), wild-type enzyme characterization. Format: biochemical. On the procedure: (§1) HPPD produces homogentisic acid and CO2 from 4-hydroxyphenylpyruvate (4-HPP) and 02. The activity assay for HPPD is based on the analysis of homogentisic acid by reversed phase HPLC. The assay mixture can contain 150 mM potassium phosphate buffer pH 7.0, 50 mM L-ascorbic acid, 100 μM Catalase (Sigma-Aldrich), 1 μM FeSO4 and 0.2 units of purified HPPD enzyme in a total volume of 505 μl. 1 unit is defined as the amount of enzyme that is required to produce 1 nmol of HGA per minute at 20° C.
(§2) After a preincubation of 30 min the reaction is started by adding 4-HPP to a final concentration of 0.05 mM. The reaction is allowed to proceed for 45 min at room temperature. The reaction is stopped by the addition of 50 μl of 4.5 M phosphoric acid. The sample is filtered using a […] pore size PVDF filtration device.
(§3) 5 μl of the cleared sample is analyzed on an UPLC HSS T3 column (particle size 1.8 μm, dimensions 2.1×50 mm; Waters) by isocratic elution using 90% 20 mM NaH2PO4 pH 2.2, 10% methanol (v/v).
(§4) HGA is detected electrochemically at 750 mV (mode: DC; polarity: positive) and quantified by integrating peak areas (Empower software; Waters).
(§5) Inhibitors are dissolved in DMSO (dimethylsulfoxide) to a concentration of 0.5 mM. From this stock solution serial five-fold dilutions are prepared in DMSO, which are used in the assay. The respective inhibitor solution accounts for 1% of the assay volume. […] Activities are normalized by setting the uninhibited enzyme activity to 100%. IC50 values are calculated using non-linear regression.
Using methods which are described in the above examples or well known in the art, purified, recombinant wild-type HPPD enzymes are characterized with respect to their kinetic properties and sensitivity towards HPPD inhibiting herbicides. Apparent michaelis constants (Km) and maximal reaction velocities (Vmax) are calculated by non-linear regression with the software GraphPad Prism 5 (GraphPad Software, La Jolla, USA) using a substrate inhibition model. […] Weighted means (by standard error) of Km and IC50 values are calculated from at least three independent experiments.
Field performance of the HPPD enzyme, which is used as a herbicide tolerance trait, may depend not only on its lack of sensitivity towards HPPD inhibiting herbicides but also on its activity. To assess the potential performance of a herbicide tolerance trait a tolerance index (TI) is calculated using the following formula: […]
(§6) Easy comparison and ranking of each trait is enabled by normalizing tolerance indexes on Arabidopsis wild-type HPPD.

The target in assay [2] is T2, Hordeum HPPD (SEQ ID: 2) R309K (Hordeum vulgare, UniProt O48604, A164G/R146V/R147D/R148G/R309K).
T2 construct: His (N); made in house; host or cells: E. coli BL21 (DE3)
T2 sequence (O48604 whole entry R146V/R147D/R148G/A164G/R309K): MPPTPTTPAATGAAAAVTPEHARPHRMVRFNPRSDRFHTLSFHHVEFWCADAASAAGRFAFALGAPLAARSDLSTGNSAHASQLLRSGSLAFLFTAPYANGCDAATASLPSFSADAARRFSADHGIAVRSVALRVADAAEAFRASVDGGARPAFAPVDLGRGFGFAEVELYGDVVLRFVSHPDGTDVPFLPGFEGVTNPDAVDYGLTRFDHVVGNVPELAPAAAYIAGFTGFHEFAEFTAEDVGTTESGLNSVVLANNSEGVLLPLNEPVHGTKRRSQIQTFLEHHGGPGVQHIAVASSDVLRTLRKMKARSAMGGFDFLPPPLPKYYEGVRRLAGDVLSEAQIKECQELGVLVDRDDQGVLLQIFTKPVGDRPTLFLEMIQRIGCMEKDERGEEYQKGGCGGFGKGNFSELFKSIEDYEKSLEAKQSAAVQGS
Description: HPPD activity assay, in vitro characterization of HPPD mutants. The format is biochemical. Particulars: Table 16, Hordeum wild-type = 1. On the procedure:
as §1, §2, §3, §4, §5
(§7) Purified, mutant HPPD enzymes are obtained by the methods described above. Dose response and kinetic measurements are carried out using the described HPPD activity assay. Apparent michaelis constants (Km) and maximal reaction velocities (Vmax) are calculated by non-linear regression with the software GraphPad Prism 5 (Graph Pad Software, La Jolla, USA) using a substrate inhibition model. […] Weighted means (by standard error) of Km and IC50 values are calculated from at least three independent experiments.
(§8) Field performance of the optimized HPPD enzyme, which is used as a herbicide tolerance trait may depend not only on its lack of sensitivity towards HPPD inhibiting herbicides but also on its activity. To assess the potential performance of a herbicide tolerance trait a tolerance index (TI) is calculated using the following formula: […]
as §6

The target in assay [3] is T3, Hordeum HPPD (SEQ ID: 2) S252T (Hordeum vulgare, UniProt O48604, A164G/R146V/R147D/R148G/S252T).
T3 construct: His (N); made in house; host or cells: E. coli BL21 (DE3)
T3 sequence (O48604 whole entry R146V/R147D/R148G/A164G/S252T): as the sequence (O48604 whole entry R146V/R147D/R148G/A164G/R309K) above, with S252T, K309R counted along it
The assay is described as above. The format is biochemical. Particulars: Table 16, Hordeum wild-type = 1. Here is the method: as §1, §2, §3, §4, §5, §7, §8, §6

The test system of assay [4] is Wild-type Arabidopsis plants. The assay is described as follows: Arabidopsis growth inhibition in 48-well plates, tolerance factor. Format: in vivo, Arabidopsis thaliana. The note with it: plant growth IC50 relative to wild-type plants; Wild-type line. On the procedure:
Depending on the species, the plants are kept at 10-25° C. or 20-35° C. The test period extends over 3 weeks. During this time, the plants are tended and their response to the individual treatments is evaluated. Herbicide injury evaluations are taken at 2 and 3 weeks after treatment. Plant injury is rated on a scale of 0 to 9, 0 being no injury and 9 being complete death. Tolerance to HPPD-inhibiting herbicides can also be assessed in Arabidopsis. In this case transgenic Arabidopsis thaliana plants are assayed for improved tolerance to HPPD-inhibiting herbicides in 48-well plates. Seeds are surface sterilized by stirring for 5 min in ethanol+water (70+30 by volume), rinsing one time with ethanol+water (70+30 by volume) and two times with a sterile, deionized water. The seeds are resuspended in 0.1% agar dissolved in water (w/v). Four to five seeds per well are plated on solid nutrient medium consisting of half-strength Murashige Skoog nutrient solution, pH 5.8 (Murashige and Skoog (1962) Physiologia Plantarum 15: 473-497). […] Seven to ten days after seeding growth inhibition is evaluated by comparison to wild-type plants. Tolerance factor is calculated by dividing the plant growth IC50 value of transgenic plants containing a HPPD and/or HST sequence by that of wild-type plants.

The test system of assay [5] is Arabidopsis overexpression line AtHPPD (Seq ID: 53) F381I. The assay is described as above. Format: in vivo, Arabidopsis thaliana. The note with it: plant growth IC50 of transgenic / wild-type plants. On the procedure:
(§9) Arabidopsis thaliana is transformed with HPPD or HST sequences by floral dip method as described by McElver and Singh (WO 2008/124495). Transgenic Arabidopsis plants are subjected to TaqMan analysis for analysis of the number of integration loci.
(§10) Depending on the species, the plants are kept at 10-25° C. or 20-35° C. The test period extends over 3 weeks. During this time, the plants are tended and their response to the individual treatments is evaluated. Herbicide injury evaluations are taken at 2 and 3 weeks after treatment. Plant injury is rated on a scale of 0 to 9, 0 being no injury and 9 being complete death. Tolerance to HPPD-inhibiting herbicides can also be assessed in Arabidopsis. In this case transgenic Arabidopsis thaliana plants are assayed for improved tolerance to HPPD-inhibiting herbicides in 48-well plates. Seeds are surface sterilized by stirring for 5 min in ethanol+water (70+30 by volume), rinsing one time with ethanol+water (70+30 by volume) and two times with a sterile, deionized water. The seeds are resuspended in 0.1% agar dissolved in water (w/v). Four to five seeds per well are plated on solid nutrient medium consisting of half-strength Murashige Skoog nutrient solution, pH 5.8 (Murashige and Skoog (1962) Physiologia Plantarum 15: 473-497). Compounds are dissolved in dimethylsulfoxid (DMSO) and added to the medium prior solidification (final DMSO concentration 0.1%). Multi well plates are incubated in a growth chamber at 22° C., 75% relative humidity and 110 μmol Phot*m-2*s-1 with 14:10 h light:dark photoperiod. Seven to ten days after seeding growth inhibition is evaluated by comparison to wild-type plants. Tolerance factor is calculated by dividing the plant growth IC50 value of transgenic plants containing a HPPD and/or HST sequence by that of wild-type plants.

Assay [6] has as its system Arabidopsis overexpression line AtHPPD (Seq ID: 53) M335H, P336G, E363Q. The description is as above. Format: in vivo, Arabidopsis thaliana. The note with it: plant growth IC50 of transgenic / wild-type plants. Here is the method:
as §9, §10

The subject of assay [7] is Arabidopsis overexpression line HvHPPD (SEQ ID: 2) L320H, P321A. The assay is described as above. The format is in vivo, Arabidopsis thaliana. The note with it: plant growth IC50 of transgenic / wild-type plants. On the procedure:
as §9, §10

For assay [8], the system named is Arabidopsis overexpression line HvHPPD (SEQ ID: 2). The assay is described as above. Format: in vivo, Arabidopsis thaliana. Particulars: plant growth IC50 of transgenic / wild-type plants. Here is the method:
as §9, §10

The test system of assay [9] is Arabidopsis overexpression line Picrophilus HPPD. Described as above. The format is in vivo, Arabidopsis thaliana. Particulars: plant growth IC50 of transgenic / wild-type plants. On the procedure: as §9, §10
Where [10] appears, read: Table 16, Hordeum HPPD variant Wild-type.

T1 sequence (O48604 whole entry R146V/R147D/R148G/A164G): as the sequence (O48604 whole entry R146V/R147D/R148G/A164G/R309K) above, with K309R counted along it

In general, Ki refers to a measure of affinity in units of concentration, obtained from inhibition or displacement. The low end stands for tighter binding, the high end for weaker binding. In turn, `COc1no[nH]/c1=N/C(=O)c1ccc2c(c1Cl)S(=O)(=O)CCC2(C)C` [Inhibitor 1, (NE)-8-chloro-N-(4-methoxy-1,2,5-oxadiazol-3-ylidene)-4,4-dimethyl-1,1-dioxo-2,3-dihydrothiochromene-7-carboxamide] displayed a Ki in [1] of 38 nM. Besides, the “TI Inhibitor 1 (normalized tolerance index)” value is on record as 0.9 in [1] (Table 12, Hordeum HPPD, normalized to reference SEQ ID NO:53); 1 in assay [1] (setting [10]); 0.4 in assay [2]; 2.4 in assay [3]. The “Tolerance factor towards Inhibitor 1” value was found to be 1 in assay [4]; 37.5 in [5]; 15.8 in assay [6]; 85 in assay [7]; 76 in [8]; 4.5 in assay [9].

For the molecule `Cc1c(C(=O)Nc2nnnn2C)ccc2c1C(=O)C(C)(C)CS2(=O)=O` [Inhibitor 2, 3,3,5-trimethyl-N-(1-methyltetrazol-5-yl)-1,1,4-trioxo-2H-thiochromene-6-carboxamide], the results for the “TI Inhibitor 2 (normalized tolerance index)” value in [1] (setting [10]), in assay [2] and in assay [3] were 1, 2.8 and 5.9, respectively. The “Tolerance factor towards Inhibitor 2” value in assay [4] came to 1; in [5], 60.8; in [6], 60.8; in assay [7] it was 7.9; in assay [8], 10.2; in [9], 2.6.
